Experimental data reported in the kinase profiling compilation of Christmann-Franck et al. (2016).

Experiments:
Assay in all cases: radiometric filter-binding kinase assay
[1] = system: AKT2 (human), P31751 [S474D]; settings: compound 100.0 µM; ATP 50 µM
AURKB (human) = AURKB (human) (UniProt Q96GD4); settings: compound 100.0 µM; ATP 20 µM
CLK2 (human) = CLK2 (human) (UniProt P49760); settings: compound 100.0 µM; ATP 5 µM
CSK (human) = CSK (human) (UniProt P41240); settings: compound 100.0 µM; ATP 20 µM
EEF2K (human) = EEF2K (human) (UniProt O00418); settings: compound 100.0 µM; ATP 5 µM
EPHA2 (human) = EPHA2 (human) (UniProt P29317); settings: compound 100.0 µM; ATP 50 µM
EPHB2 (human) = EPHB2 (human) (UniProt P29323); settings: compound 100.0 µM; ATP 20 µM
EPHB2 (human), sequence (P29323 whole entry, looked up): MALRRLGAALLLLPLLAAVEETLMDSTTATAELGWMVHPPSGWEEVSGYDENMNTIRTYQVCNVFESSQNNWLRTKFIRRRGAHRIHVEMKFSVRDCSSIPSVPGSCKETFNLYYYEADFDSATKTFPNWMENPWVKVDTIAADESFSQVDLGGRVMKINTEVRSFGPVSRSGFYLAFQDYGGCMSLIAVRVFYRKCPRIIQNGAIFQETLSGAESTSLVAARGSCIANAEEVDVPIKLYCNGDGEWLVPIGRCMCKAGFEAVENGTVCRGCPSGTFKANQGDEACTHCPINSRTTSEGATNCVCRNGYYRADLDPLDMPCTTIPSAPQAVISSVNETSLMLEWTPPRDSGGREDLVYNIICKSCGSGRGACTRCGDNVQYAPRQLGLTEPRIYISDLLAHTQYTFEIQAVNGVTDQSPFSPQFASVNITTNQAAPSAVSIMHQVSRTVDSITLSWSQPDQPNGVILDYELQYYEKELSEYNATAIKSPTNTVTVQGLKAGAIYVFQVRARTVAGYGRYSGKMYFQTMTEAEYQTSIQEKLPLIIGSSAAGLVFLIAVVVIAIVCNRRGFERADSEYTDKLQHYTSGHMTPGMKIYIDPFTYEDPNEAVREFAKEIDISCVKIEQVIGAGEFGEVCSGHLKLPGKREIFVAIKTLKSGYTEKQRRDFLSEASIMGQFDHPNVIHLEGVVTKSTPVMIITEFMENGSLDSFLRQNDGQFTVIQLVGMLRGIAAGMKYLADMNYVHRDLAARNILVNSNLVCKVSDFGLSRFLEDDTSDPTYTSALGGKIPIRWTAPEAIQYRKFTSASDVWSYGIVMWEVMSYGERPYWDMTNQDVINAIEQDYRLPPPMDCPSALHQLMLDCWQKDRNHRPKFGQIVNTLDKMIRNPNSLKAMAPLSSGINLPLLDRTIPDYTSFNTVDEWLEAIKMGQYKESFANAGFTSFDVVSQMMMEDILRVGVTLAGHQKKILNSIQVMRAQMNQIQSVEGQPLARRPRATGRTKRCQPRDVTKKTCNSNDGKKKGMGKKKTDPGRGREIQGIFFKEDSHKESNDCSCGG

EPHB3 (human) = EPHB3 (human) (UniProt P54753); settings: compound 100.0 µM; ATP 20 µM
EPHB4 (human) = EPHB4 (human) (UniProt P54760); settings: compound 100.0 µM; ATP 5 µM
FGFR1 (human) = FGFR1 (human) (UniProt P11362); settings: compound 100.0 µM; ATP 20 µM
FLT1 (human) = FLT1 (human) (UniProt P17948); settings: compound 100.0 µM; ATP 20 µM
HIPK2 (human) = HIPK2 (human) (UniProt Q9H2X6); settings: compound 100.0 µM; ATP 5 µM
HIPK3 (human) = HIPK3 (human) (UniProt Q9H422); settings: compound 100.0 µM; ATP 20 µM
HIPK3 (human), sequence (Q9H422 whole entry, looked up): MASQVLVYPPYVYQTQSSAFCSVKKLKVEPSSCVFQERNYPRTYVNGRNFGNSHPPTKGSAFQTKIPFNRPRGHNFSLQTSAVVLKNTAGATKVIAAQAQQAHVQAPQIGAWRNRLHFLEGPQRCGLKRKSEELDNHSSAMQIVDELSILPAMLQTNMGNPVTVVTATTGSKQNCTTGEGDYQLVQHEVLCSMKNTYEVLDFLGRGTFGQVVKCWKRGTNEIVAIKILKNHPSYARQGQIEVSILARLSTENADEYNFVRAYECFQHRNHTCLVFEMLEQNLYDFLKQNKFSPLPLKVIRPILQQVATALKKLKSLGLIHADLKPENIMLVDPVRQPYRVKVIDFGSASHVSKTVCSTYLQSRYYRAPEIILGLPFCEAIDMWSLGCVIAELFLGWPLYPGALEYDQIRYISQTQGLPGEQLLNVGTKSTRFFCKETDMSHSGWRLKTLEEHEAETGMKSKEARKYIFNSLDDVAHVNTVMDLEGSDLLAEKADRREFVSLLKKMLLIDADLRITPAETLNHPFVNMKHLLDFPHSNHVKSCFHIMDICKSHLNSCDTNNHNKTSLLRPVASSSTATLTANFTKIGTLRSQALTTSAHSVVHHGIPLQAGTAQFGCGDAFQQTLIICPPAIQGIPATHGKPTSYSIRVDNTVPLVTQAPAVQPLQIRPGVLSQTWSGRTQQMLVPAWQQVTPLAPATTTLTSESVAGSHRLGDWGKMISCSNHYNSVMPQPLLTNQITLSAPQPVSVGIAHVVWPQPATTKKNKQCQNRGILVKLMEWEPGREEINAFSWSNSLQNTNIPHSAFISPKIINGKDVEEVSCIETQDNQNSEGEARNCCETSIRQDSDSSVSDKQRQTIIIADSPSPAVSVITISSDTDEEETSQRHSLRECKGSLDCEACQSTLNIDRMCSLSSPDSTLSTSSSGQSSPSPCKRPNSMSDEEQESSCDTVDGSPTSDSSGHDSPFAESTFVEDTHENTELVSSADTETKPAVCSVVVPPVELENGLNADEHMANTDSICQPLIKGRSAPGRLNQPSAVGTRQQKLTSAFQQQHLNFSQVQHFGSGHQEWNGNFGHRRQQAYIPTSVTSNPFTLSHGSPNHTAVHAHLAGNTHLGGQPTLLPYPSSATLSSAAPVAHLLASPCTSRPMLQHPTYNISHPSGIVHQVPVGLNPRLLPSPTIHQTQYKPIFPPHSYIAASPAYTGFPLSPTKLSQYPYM

IGF1R (human) = IGF1R (human) (UniProt P08069); settings: compound 100.0 µM; ATP 5 µM
IKBKE (human) = IKBKE (human) (UniProt Q14164); settings: compound 100.0 µM; ATP 50 µM
MAP3K11 (human) = MAP3K11 (human) (UniProt Q16584); settings: compound 100.0 µM; ATP 20 µM
MAPK1 (human) = MAPK1 (human) (UniProt P28482); settings: compound 100.0 µM; ATP 20 µM
MAPK10 (human) = MAPK10 (human) (UniProt P53779); settings: compound 100.0 µM; ATP 20 µM
MAPK10 (human), sequence (P53779 whole entry, looked up): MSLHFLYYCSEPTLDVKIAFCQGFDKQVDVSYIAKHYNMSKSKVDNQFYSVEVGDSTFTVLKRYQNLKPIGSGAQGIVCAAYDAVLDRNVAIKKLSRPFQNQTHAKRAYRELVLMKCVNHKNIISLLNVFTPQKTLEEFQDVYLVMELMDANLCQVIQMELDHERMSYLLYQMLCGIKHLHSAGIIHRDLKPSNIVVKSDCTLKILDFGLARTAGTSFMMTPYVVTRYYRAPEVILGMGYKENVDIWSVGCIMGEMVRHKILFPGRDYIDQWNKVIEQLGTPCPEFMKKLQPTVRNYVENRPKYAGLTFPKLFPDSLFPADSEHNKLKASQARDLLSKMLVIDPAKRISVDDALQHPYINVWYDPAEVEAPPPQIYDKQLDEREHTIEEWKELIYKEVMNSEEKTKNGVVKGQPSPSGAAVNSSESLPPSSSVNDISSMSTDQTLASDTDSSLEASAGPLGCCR

MAPK11 (human) = MAPK11 (human) (UniProt Q15759); settings: compound 100.0 µM; ATP 20 µM
MAPK12 (human) = MAPK12 (human) (UniProt P53778); settings: compound 100.0 µM; ATP 5 µM
MAPK12 (human), sequence (P53778 whole entry, looked up): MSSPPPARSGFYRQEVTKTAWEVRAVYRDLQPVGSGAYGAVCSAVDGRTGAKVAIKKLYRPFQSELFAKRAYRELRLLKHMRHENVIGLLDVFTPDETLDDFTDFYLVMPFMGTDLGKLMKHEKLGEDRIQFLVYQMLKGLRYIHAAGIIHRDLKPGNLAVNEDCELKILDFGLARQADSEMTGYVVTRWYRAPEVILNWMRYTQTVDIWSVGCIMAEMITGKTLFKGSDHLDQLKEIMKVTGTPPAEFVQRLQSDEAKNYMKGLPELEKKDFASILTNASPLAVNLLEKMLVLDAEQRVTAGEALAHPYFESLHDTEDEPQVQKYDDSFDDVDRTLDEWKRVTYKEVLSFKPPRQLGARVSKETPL

MAPK3 (human) = MAPK3 (human) (UniProt P27361); settings: compound 100.0 µM; ATP 5 µM
MAPK8 (human) = MAPK8 (human) (UniProt P45983); settings: compound 100.0 µM; ATP 20 µM
MARK2 (human) = MARK2 (human) (UniProt Q7KZI7); settings: compound 100.0 µM; ATP 20 µM
MARK3 (human) = MARK3 (human) (UniProt P27448); settings: compound 100.0 µM; ATP 5 µM
MARK4 (human) = MARK4 (human) (UniProt Q96L34); settings: compound 100.0 µM; ATP 50 µM
MELK (human) = MELK (human) (UniProt Q14680); settings: compound 100.0 µM; ATP 50 µM
MINK1 (human) = MINK1 (human) (UniProt Q8N4C8); settings: compound 100.0 µM; ATP 50 µM
MST4 (human) = MST4 (human) (UniProt Q9P289); settings: compound 100.0 µM; ATP 20 µM
MYLK (human) = MYLK (human) (UniProt Q15746); settings: compound 100.0 µM; ATP 50 µM
PHKG1 (human) = PHKG1 (human) (UniProt Q16816); settings: compound 100.0 µM; ATP 50 µM
PRKCA (human) = PRKCA (human) (UniProt P17252); settings: compound 100.0 µM; ATP 20 µM
PTK6 (human) = PTK6 (human) (UniProt Q13882); settings: compound 100.0 µM; ATP 20 µM
RPS6KA1 KD1 KD2 (human) = RPS6KA1 KD1 KD2 (human) (UniProt Q15418); settings: compound 100.0 µM; ATP 50 µM
[2] = system: SGK1 (human), O00141 [S422D]; settings: compound 100.0 µM; ATP 20 µM
SRPK1 (human) = SRPK1 (human) (UniProt Q96SB4); settings: compound 100.0 µM; ATP 50 µM
[3] = biological target: STK11 CAB39 STRADA (human) (UniProt Q9Y376+Q7RTN6+Q15831); settings: compound 100.0 µM; ATP 20 µM
STK33 (human) = STK33 (human) (UniProt Q9BYT3); settings: compound 100.0 µM; ATP 50 µM
STK33 (human), sequence (Q9BYT3 whole entry, looked up): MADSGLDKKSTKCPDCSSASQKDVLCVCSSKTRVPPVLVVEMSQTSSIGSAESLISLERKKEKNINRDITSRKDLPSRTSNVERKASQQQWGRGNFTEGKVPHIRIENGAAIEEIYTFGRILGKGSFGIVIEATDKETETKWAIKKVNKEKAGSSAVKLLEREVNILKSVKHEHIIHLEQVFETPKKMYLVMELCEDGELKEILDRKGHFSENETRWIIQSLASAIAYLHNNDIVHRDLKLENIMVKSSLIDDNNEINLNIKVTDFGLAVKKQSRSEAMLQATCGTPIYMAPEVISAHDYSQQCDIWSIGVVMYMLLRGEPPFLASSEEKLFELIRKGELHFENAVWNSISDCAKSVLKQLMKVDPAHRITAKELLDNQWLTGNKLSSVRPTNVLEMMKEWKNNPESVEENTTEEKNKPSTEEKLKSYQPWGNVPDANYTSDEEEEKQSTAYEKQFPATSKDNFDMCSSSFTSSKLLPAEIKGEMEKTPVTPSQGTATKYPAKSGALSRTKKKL

SYK (human) = SYK (human) (UniProt P43405); settings: compound 100.0 µM; ATP 20 µM
TAOK1 (human) = TAOK1 (human) (UniProt Q7L7X3); settings: compound 100.0 µM; ATP 20 µM
ZAP70 (human) = ZAP70 (human) (UniProt P43403); settings: compound 100.0 µM; ATP 5 µM
ZAP70 (human), sequence (P43403 whole entry, looked up): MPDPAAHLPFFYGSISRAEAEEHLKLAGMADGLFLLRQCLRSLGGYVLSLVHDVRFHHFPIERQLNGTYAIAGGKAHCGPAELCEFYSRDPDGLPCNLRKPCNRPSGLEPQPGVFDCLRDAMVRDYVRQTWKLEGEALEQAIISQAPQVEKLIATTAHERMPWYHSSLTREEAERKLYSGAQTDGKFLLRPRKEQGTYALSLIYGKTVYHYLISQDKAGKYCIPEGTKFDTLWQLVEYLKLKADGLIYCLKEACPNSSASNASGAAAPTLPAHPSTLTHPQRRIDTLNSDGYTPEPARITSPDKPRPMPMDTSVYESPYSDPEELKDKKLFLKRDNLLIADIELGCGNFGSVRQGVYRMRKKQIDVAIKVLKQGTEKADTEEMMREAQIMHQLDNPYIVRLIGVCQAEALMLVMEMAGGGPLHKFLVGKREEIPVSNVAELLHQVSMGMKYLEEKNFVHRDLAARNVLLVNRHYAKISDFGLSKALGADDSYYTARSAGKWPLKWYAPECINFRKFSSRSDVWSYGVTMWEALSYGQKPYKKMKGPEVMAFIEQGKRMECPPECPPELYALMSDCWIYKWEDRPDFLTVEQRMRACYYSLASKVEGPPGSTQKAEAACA

Structure (SMILES) | inhibition [1] [%] | inhibition (AURKB (human)) [%] | inhibition (CLK2 (human)) [%] | inhibition (CSK (human)) [%] | inhibition (EEF2K (human)) [%] | inhibition (EPHA2 (human)) [%] | inhibition (EPHB2 (human)) [%] | inhibition (EPHB3 (human)) [%] | inhibition (EPHB4 (human)) [%] | inhibition (FGFR1 (human)) [%] | inhibition (FLT1 (human)) [%] | inhibition (HIPK2 (human)) [%] | inhibition (HIPK3 (human)) [%] | inhibition (IGF1R (human)) [%] | inhibition (IKBKE (human)) [%] | inhibition (MAP3K11 (human)) [%] | inhibition (MAPK1 (human)) [%] | inhibition (MAPK10 (human)) [%] | inhibition (MAPK11 (human)) [%] | inhibition (MAPK12 (human)) [%] | other results
Nc1nc2cnc(-c3ccccc3)cn2n1 | 32 | 76 | 74 | 71 | 36 | 28 | 30 | 54 | 56 | 79 | 82 | 57 | 16 | 91 | 39 | 89 | 47 | 47 | 34 | 1 | inhibition (MAPK3 (human)): 31%; inhibition (MAPK8 (human)): 30%; inhibition (MARK2 (human)): 2%; inhibition (MARK3 (human)): 59%; inhibition (MARK4 (human)): 44%; inhibition (MELK (human)): 13%; inhibition (MINK1 (human)): 68%; inhibition (MST4 (human)): 41%; inhibition (MYLK (human)): 19%; inhibition (PHKG1 (human)): 83%; inhibition (PRKCA (human)): 2%; inhibition (PTK6 (human)): 53%; inhibition (RPS6KA1 KD1 KD2 (human)): 34%; inhibition [2]: 34%; inhibition (SRPK1 (human)): 41%; inhibition [3]: 2%; inhibition (STK33 (human)): 20%; inhibition (SYK (human)): 84%; inhibition (TAOK1 (human)): 37%; inhibition (ZAP70 (human)): 0%
CC(C)(C)Nc1c(C2CC2)nc2[nH]cnn12 | 31 | 34 | 34 | 0 | 18 | 0 | 0 | 68 | 19 | 65 | 12 | 22 | 0 | 0 | 0 | 0 | 0 | 1 | 0 | 0 | inhibition (MAPK3 (human)): 0%; inhibition (MAPK8 (human)): 0%; inhibition (MARK2 (human)): 0%; inhibition (MARK3 (human)): 0%; inhibition (MARK4 (human)): 15%; inhibition (MELK (human)): 0%; inhibition (MINK1 (human)): 0%; inhibition (MST4 (human)): 0%; inhibition (MYLK (human)): 14%; inhibition (PHKG1 (human)): 6%; inhibition (PRKCA (human)): 0%; inhibition (PTK6 (human)): 25%; inhibition (RPS6KA1 KD1 KD2 (human)): 3%; inhibition [2]: 0%; inhibition (SRPK1 (human)): 0%; inhibition [3]: 0%; inhibition (STK33 (human)): 0%; inhibition (SYK (human)): 7%; inhibition (TAOK1 (human)): 0%; inhibition (ZAP70 (human)): 1%
CC(C)(C)Nc1c(COCc2ccccc2)nc2[nH]cnn12 | 39 | 12 | 43 | 0 | 0 | 0 | 1 | 90 | 13 | 40 | 0 | 18 | 1 | 0 | 0 | 0 | 0 | 0 | 3 | 0 | inhibition (MAPK3 (human)): 1%; inhibition (MAPK8 (human)): 2%; inhibition (MARK2 (human)): 13%; inhibition (MARK3 (human)): 13%; inhibition (MARK4 (human)): 22%; inhibition (MELK (human)): 16%; inhibition (MINK1 (human)): 3%; inhibition (MST4 (human)): 0%; inhibition (MYLK (human)): 24%; inhibition (PHKG1 (human)): 10%; inhibition (PRKCA (human)): 0%; inhibition (PTK6 (human)): 21%; inhibition (RPS6KA1 KD1 KD2 (human)): 3%; inhibition [2]: 0%; inhibition (SRPK1 (human)): 3%; inhibition [3]: 0%; inhibition (STK33 (human)): 0%; inhibition (SYK (human)): 12%; inhibition (TAOK1 (human)): 0%; inhibition (ZAP70 (human)): 0%
